Results as given in patent US6242439A, “Azetidinone derivatives for the treatment of HCMV infections” (Boehringer Ingelheim (Canada) Ltd., priority 1998, dated 2001).
Where two headings read alike, the source gives them in different places. Non-standard residues stand in square brackets, D forms with d. Residues, ends and D or L forms follow the SMILES beside them. Tyr(3-NO2) = N[C@@H](Cc1ccc(O)c([N+](=O)[O-])c1)C(=O)O; 2Abz = Nc1ccccc1C(=O)O

What was measured:
[1] = Cytotoxic effects, tetrazolium salt (MTT) metabolic assay; assay type: cell-based; details: read-out: TC50 (the source's name)
Description: In conjunction with the appropriate starting materials and intermediates, the procedures of examples 1 to 11 can be used to prepare other compounds of formula 1. Examples of compounds thus prepared are listed in the following Tables I, II and III together with mass spectrum data for the compounds, and results from the assays A and B of example 12. Cytotoxic effects noted as TC50 in the following tables were determined according to the tetrazolium salt (MTT) metabolic assay, F. Denizot and F. Lang, J. Immun. Meth., 1986, 89, 271.

[2] = molecular target: HCMV NO protease (Human cytomegalovirus, UniProt P16753); assay: HCMV NO Protease Assay (inhibition of cleavage of internally quenched fluorogenic peptide substrate); assay type: biochemical; details: for IC50: 100 nM HCMV NO protease, 5 μM substrate, 2.5 h at 30°, pH 8
Description: This particular assay determines the ability of a test compound to inhibit the activity of HCMV protease. More specifically, in the assay described herein, the inhibitory activity of the test compound is evaluated on the basis of its ability to interfere with the HCMV No protease cleavage of a fluorogenic peptide substrate which in turn is based on the maturation cleavage site of the enzyme.
A. HCMV NO Protease Assay
Material & Methods: Fluorescence measurements were recorded on a Perkin-Elmer LS-50B spectrofluorimeter equipped with a plate reader accessory. UV measurements were recorded on a Thermomax® microplate reader from Molecular Devices Corporation, Menlo Park, Calif., USA.
HCMV NO protease was assayed with an internally quenched fluorogenic substrate based on the maturation cleavage site (Abz-[…](3-NO2)R--OH, kcat /KM =260 M^-1 s^-1). The fluorescence increase upon cleavage of the Ala-Ser amide bond was monitored using excitation λ=312 nm (slit 2.5 nm) and emission λ=415 nm (slit 5 nm). A protocol adaptable to a 96-well plate format was designed for the determination of IC50 values of inhibitors. […] After this period, enzymatic hydrolysis of the fluorogenic substrate in the absence of inhibitor led to about a 30% conversion. Quenching was not required before fluorescence measurement since the total scanning time by the plate reader accessory was brief relative to the duration of the reaction. The aqueous incubation buffer contained 50 mM tris(hydroxymethyl)aminomethane.HCl pH 8, 0.5M Na2 SO4, 50 mM NaCl, 0.1 mM EDTA, 1 mM tris(2-carboxyethyl)phosphine.HCl, 3% v/v DMSO and 0.05% w/v casein. The final concentrations of HCMV NO protease (expressed in terms of total monomer concentration) and substrate were 100 nM and 5 μM respectively. IC50 values were obtained through fitting of the inhibition curve to a competitive inhibition model using SAS NLIN procedure. The mode of inhibition was determined by measurements of the initial rates (in cuvettes) at various substrate concentrations in the buffer as described above. The IC50 values listed in the following tables the IC50 were obtained according to this assay.

[3] = test system: HCMV (strain AD169, ATCC VR-538); assay: Plaque Reduction Assay (PRA); assay type: cell-based, human cytomegalovirus (HCMV); details: Hs-68 cells, approximately 50 PFU HCMV AD169, 8 days at 37°, read-out: EC50
Description: B. Plaque Reduction Assay (PRA)
Hs-68 cells (ATCC #CRL 1635) were seeded in 12-well plates at 83,000 cells/well in 1 mL of DMEM medium (Gibco Canada Inc.) supplemented with 10% fetal bovine serum (FBS, Gibco Canada Inc.). The plates were incubated for 3 days at 37° to allow the cells to reach 80-90% confluency prior to the assay.
The medium was removed from the cells by aspiration. The cells were then infected with approximately 50 PFU of HCMV (strain AD169, ATCC VR-538) in DMEM medium supplemented with 5% inactivated FBS (assay medium). (DMEM medium is commercially available and has been described by R. Dulbecco et al., Virology 1959, 8, 396.) The virus was allowed to adsorb to cells for 2 h at 37°. Following viral adsorption, the medium was removed from the wells by aspiration. The cells were then incubated with or without 1 mL of appropriate concentrations of test reagent in assay medium. Occasionally, test compounds were added 24 h post-infection. After 4 days of incubation at 37°, the medium was exchanged with fresh medium containing test compound and 4 days later the cells were fixed with 1% aqueous formaldehyde and stained with a 2% violet solution in 20% ethanol in water. Microscopic plaques were counted using a stereomicroscope. Drug effects were calculated as a percent reduction in the number of plaques in the presence of each drug concentration compared to the number observed in the absence of drug. Ganciclovir was used as a positive control in all experiments.

[4] = Human betaherpesvirus 5, AD169, Hs68, 192 h

HCMV NO protease, sequence (P16753 1-256): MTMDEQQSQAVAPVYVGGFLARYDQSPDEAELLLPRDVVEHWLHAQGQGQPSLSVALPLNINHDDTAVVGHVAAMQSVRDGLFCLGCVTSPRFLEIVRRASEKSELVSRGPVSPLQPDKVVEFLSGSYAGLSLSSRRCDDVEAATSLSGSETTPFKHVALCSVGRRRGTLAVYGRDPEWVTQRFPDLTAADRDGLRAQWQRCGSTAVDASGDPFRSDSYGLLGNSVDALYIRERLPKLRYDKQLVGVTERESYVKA

`CCC(NC(=O)N1C(=O)[C@@H](C)[C@@H]1Cc1ccccc1)c1ccncc1` (single isomer, unassigned) [Entry 205] showed a CC50 [1] greater than 250 µM, an IC50 [2] of 21 µM and an EC50 [3] greater than 250 µM.
Compound `CCC(NC(=O)N1C(=O)[C@@H](C)[C@@H]1Cc1ccccc1)c1ccncc1` (single isomer, unassigned) [Entry 206] has a CC50 [1] greater than 250 µM, an IC50 [2] of 3.2 µM and an EC50 [3] of 96 µM.
`CN(Cc1ccc(C(F)(F)F)cc1)C(=O)N1C(=O)CC1Cc1nnn(C)n1` (stereo in doubt) [Entry 223, 4(R)-(2-methyl-2H-tetrazol-5-ylmethyl)-2-oxoazetidine-1-carboxylic acid N-methyl-N{{(4-trifluoromethyl)phenyl}methyl}amide] showed a CC50 [1] greater than 195 µM, an IC50 [2] of 5.7 µM and an EC50 [3, 4] of 94 µM.
Work on `O=C1C[C@H](Cc2ccccc2)N1C(=O)Nc1ccc(F)cc1` [Entry 101] yielded a CC50 [1] greater than 250 µM, an IC50 [2] of 3.7 µM and an EC50 [3, 4] greater than 250 µM.
Compound `COc1ccc(NC(=O)N2C(=O)C[C@@H]2Cc2ccccc2)cc1` [Entry 102] has a CC50 [1] greater than 250 µM, an IC50 [2] of 3.9 µM and an EC50 [3, 4] of 215 µM.
`Cc1ccc(NC(=O)N2C(=O)C[C@@H]2Cc2ccccc2)cc1` [Entry 103] gave a CC50 [1] greater than 250 µM, an IC50 [2] of 5.3 µM and an EC50 [3, 4] greater than 250 µM.
Compound `O=C1C[C@H](Cc2ccccc2)N1C(=O)Nc1ccccc1` [Entry 104] has a CC50 [1] greater than 250 µM and an EC50 [3, 4] greater than 250 µM.
For `C[C@@H](NC(=O)N1C(=O)C[C@@H]1Cc1ccccc1)c1cccc2ccccc12` [Entry 105], the CC50 [1] was greater than 18 µM, the IC50 [2] was 7.7 µM and the EC50 [3, 4] was greater than 18 µM.
In the case of `COc1c(C)cc(NC(=O)N2C(=O)C[C@@H]2Cc2ccccc2)cc1C` [Entry 106], the CC50 [1] is reported as greater than 250 µM, the IC50 [2] is reported as 2.4 µM and the EC50 [3, 4] is reported as 190 µM.
In the case of `O=C1C[C@H](Cc2ccccc2)N1C(=O)Nc1ccncc1` [Entry 107], the CC50 [1] is reported as greater than 250 µM, the IC50 [2] is reported as 1.9 µM and the EC50 [3, 4] is reported as greater than 250 µM.
`CCC(NC(=O)N1C(=O)C[C@@H]1Cc1ccccc1)c1ccncc1` (stereo partly drawn) [Entry 108] gave an IC50 [2] of 28 µM.
With `CCC(NC(=O)N1C(=O)C[C@@H]1Cc1ccccc1)c1ccncc1` (stereo partly drawn) [Entry 109] the CC50 [1] was greater than 250 µM, the IC50 [2] was 1.6 µM and the EC50 [3, 4] was 130 µM.
Work on `CCC(CC)NC(=O)N1C(=O)C[C@@H]1Cc1ccccc1` [Entry 110] yielded an IC50 [2] of 38 µM.
`O=C1C[C@H](Cc2ccccc2)N1C(=O)NCc1ccc2c(c1)OCO2` [Entry 111] gave a CC50 [1] greater than 150 µM, an IC50 [2] of 3.7 µM and an EC50 [3, 4] greater than 150 µM.
With `CN(Cc1ccccc1)C(=O)N1C(=O)C[C@@H]1Cc1ccccc1` [Entry 112] the CC50 [1] was greater than 150 µM and the EC50 [3, 4] was 150 µM.
Work on `CN(C)C(=O)N1C(=O)C[C@@H]1Cc1ccccc1` [Entry 113] yielded an IC50 [2] of 50 µM.
For `CN(CCc1ccccc1)C(=O)N1C(=O)C[C@@H]1Cc1ccccc1` [Entry 114], the IC50 [2] was 38 µM.
With `CN(CC(=O)OCc1ccccc1)C(=O)N1C(=O)C[C@@H]1Cc1ccccc1` [Entry 115] the IC50 [2] was 11.7 µM.
`O=C1C[C@H](Cc2ccccc2)N1C(=O)NCc1ccccc1` [Entry 116, 4(S)-Benzyl-2-oxoazetidine-1-carboxylic acid benzyl-amide] showed a CC50 [1] greater than 250 µM, an IC50 [2] of 8.9 µM and an EC50 [3, 4] of 53 µM.
`CC[C@@H](NC(=O)N1C(=O)C[C@@H]1Cc1ccccc1)c1ccccc1` [Entry 118] gave a CC50 [1] greater than 250 µM, an IC50 [2] of 2.6 µM and an EC50 [3, 4] of 180 µM.
Work on `C[C@H](c1ccccc1)N(C)C(=O)N1C(=O)C[C@@H]1Cc1ccccc1` [Entry 119] yielded an IC50 [2] of 24 µM.
`CC(c1ccccc1)N(C)C(=O)N1C(=O)CC1Cc1ccccc1` (stereo not drawn) [Entry 120] gave an IC50 [2] of 17.7 µM.
In the case of `CCCC(NC(=O)N1C(=O)CC1Cc1ccccc1)c1ccccc1` (stereo not drawn) [Entry 121], the CC50 [1] is reported as greater than 250 µM, the IC50 [2] is reported as 3.4 µM and the EC50 [3, 4] is reported as 160 µM.
Compound `CN(Cc1ccc([N+](=O)[O-])cc1)C(=O)N1C(=O)C[C@@H]1Cc1ccccc1` [Entry 122] has a CC50 [1] greater than 250 µM, an IC50 [2] of 1.5 µM and an EC50 [3, 4] of 105 µM.
With `CCC(c1ccccc1)N(C)C(=O)N1C(=O)CC1Cc1ccccc1` (stereo not drawn) [Entry 123] the IC50 [2] was 30 µM.
`CN(Cc1ccccc1[N+](=O)[O-])C(=O)N1C(=O)C[C@@H]1Cc1ccccc1` [Entry 124] gave a CC50 [1] greater than 250 µM, an IC50 [2] of 6.9 µM and an EC50 [3, 4] of 150 µM.
Work on `CN(Cc1ccc(N)cc1)C(=O)N1C(=O)C[C@@H]1Cc1ccccc1` [Entry 125] yielded an IC50 [2] of 13.4 µM.
Compound `CN(Cc1ccc(Cl)cc1)C(=O)N1C(=O)C[C@@H]1Cc1ccccc1` [Entry 126] has a CC50 [1] greater than 250 µM, an IC50 [2] of 6.9 µM and an EC50 [3, 4] of 150 µM.
`Cc1ccc(CN(C)C(=O)N2C(=O)C[C@@H]2Cc2ccccc2)cc1` [Entry 129] showed a CC50 [1] greater than 200 µM, an IC50 [2] of 8.9 µM and an EC50 [3, 4] of 140 µM.
Work on `COc1ccc(CN(C)C(=O)N2C(=O)C[C@@H]2Cc2ccccc2)cc1` [Entry 130] yielded a CC50 [1] greater than 250 µM and an EC50 [3, 4] of 110 µM.
Work on `CN(Cc1ccc(C(F)(F)F)cc1)C(=O)N1C(=O)C[C@@H]1Cc1ccccc1` [Entry 135, 4(S)-Benzyl-2-oxoazetidine-1-carboxylic acid N-methyl-N-{{4-(trifluoromethyl)phenyl}methyl}amide] yielded a CC50 [1] greater than 250 µM and an EC50 [3, 4] of 190 µM.
For `CN(Cc1ccc([S+]([O-])C(F)(F)F)cc1)C(=O)N1C(=O)C[C@@H]1Cc1ccccc1` (stereo partly drawn) [Entry 138], the CC50 [1] was greater than 250 µM and the EC50 [3, 4] was greater than 250 µM.
With `O=C1C[C@H](Cc2ccccc2)N1C(=O)NC1CCc2ccccc21` (stereo partly drawn) [Entry 140] the IC50 [2] was 14 µM.
Compound `CC(NC(=O)N1C(=O)CC1Cc1ccccc1)c1ccccc1` (stereo not drawn) [Entry 141] has an IC50 [2] of 42 µM.
For `O=C1C[C@H](Cc2ccccc2)N1C(=O)NCc1ccccn1` [Entry 143], the IC50 [2] was 33 µM.
Compound `C[C@@H]1C(=O)N(C(=O)NCc2ccncc2)[C@H]1Cc1ccccc1` [Entry 201] has a CC50 [1] greater than 250 µM and an EC50 [3, 4] of 190 µM.
With `CO[C@@H]1C(=O)N(C(=O)NCc2ccncc2)[C@H]1Cc1ccccc1` [Entry 210, 4(S)-Benzyl-3(S)-methoxy-2-oxoazetidine-1-carboxylic acid (4-pyridinylmethyl)amide] the CC50 [1] was greater than 250 µM and the EC50 [3, 4] was 210 µM.
In the case of `CC[C@@H](NC(=O)N1C(=O)C[C@H]1C(C)(C)C)c1ccccc1` [Entry 215, 4(S)-tert-Butyl-2-oxoazetidine-1-carboxylic acid (1(R)-phenylpropyl)amide], the IC50 [2] is reported as 41 µM.
In the case of `CN(Cc1ccc(C(F)(F)F)cc1)C(=O)N1C(=O)C[C@@H]1Cc1ncoc1-c1ccccc1` [Entry 220], the IC50 [2] is reported as 14 µM.
`O=C1C[C@H](Cc2ccccc2)N1C(=O)N1CCOCC1` [Entry 301] showed an IC50 [2] of 142 µM.
For `O=C1C[C@H](Cc2ccccc2)N1C(=O)N1CCc2ccccc2C1` [Entry 302], the IC50 [2] was 36 µM.
With `O=C1C[C@H](Cc2ccccc2)N1C(=O)N1CCCC1` [Entry 303] the IC50 [2] was 63 µM.
In the case of `O=C1C[C@H](Cc2ccccc2)N1C(=O)N1CCCc2ccccc21` [Entry 304], the IC50 [2] is reported as 154 µM.
`CC(C)C[C@H](NC(=O)[C@H](CCCNC(=N)N)NC(=O)[C@H](CO)NC(=O)[C@H](CO)NC(=O)[C@H](C)NC(=O)[C@H](CC(N)=O)NC(=O)[C@@H](NC(=O)[C@@H](NC(=O)c1ccccc1N)C(C)C)C(C)C)C(=O)N[C@@H](Cc1ccc(O)c([N+](=O)[O-])c1)C(=O)N[C@@H](CCCNC(=N)N)C(=O)O` [reference compound] (H-[2Abz]VVNASSRL[Tyr(3-NO2)]R-OH) showed a kcat/KM ([2]; fluorogenic substrate of HCMV NO protease) of 260 M⁻¹ s⁻¹.
